According to patent publication US20200078379A1, “DEFEROXAMINE DERIVATIVES AS MEDICAMENTS” (BIOTECHNOLOGICKY USTAV AV CR, V.V.I., priority 2017, published 2020):
pIC50: −log10 of the molar value. Like-named read-outs stand apart in the source and are kept apart here.

Key:
[1] = tested on: BT474 cells; assay: crystal violet assay, cellular viability; type: cell-based; conditions: for pIC50: Homo sapiens, BT-474
[2] = tested on: BxPC-3 cells; assay: crystal violet assay, cellular viability; type: cell-based; conditions: Homo sapiens, BxPC-3, 48 hours
[3] = tested on: MDA-MB-231 cells; assay: cellular proliferation, continuous confluence monitoring via Juli FL; type: cell-based, human; conditions: for Final confluence: MDA-MB-231, 48 hrs
Procedure: (§1) We also tested the ability of compound 2 to suppress proliferation of cancer cells by an alternative approach via the real time monitoring with a cellular analyser Juli FL. In brief, MCF7 or MDA-MB-231 cells were seeded in a 6-well plate the day before to reach approximately 20% confluence on the following day. Next day, the camera of the instrument was focused on a particular field with approximately 20% confluence and cells were continuously monitored, recording the confluence and visual appearance every 30 minutes for 48 hrs. Values were then expressed either as simple confluence at the end of the experiment or as slope of the line representing the confluence during a given period of time (Table 10). It is clear from the collected data that, in agreement with Xcelligence data, we do see inhibition of proliferation at 1 μM, complete block of proliferation at 2 μM and a cytotoxic effect at 5 μM. The effect is less pronounced in this case as dead cells remain in the monitored field and some are still counted as living cells by the software.

[4] = tested on: MCF7 cells; assay: as above; type: cell-based, human; conditions: for Final confluence: MCF7, 48 hrs
Procedure: as §1

[5] = tested on: MDA-MB-231 cells; assay: AnnexinV/PI cell death assay; type: cell-based, human; conditions: 48 hrs
Procedure: (§2) To confirm such findings by an independent method, cell death-inducing potency (cytotoxic efficacy) of DFO and compound 2 have been tested via annexin V/PI staining commonly used as a measure of apoptotic/necrotic cell death. Briefly, cells were seeded in 12-well plate at 100,000 per well, incubated with the selected compounds for 48 hours, then floating cells were spun, adherent cells trypsinized and spun as well followed by the staining with AnnexinV-FITC and PI probes. Cells were then washed with PBS and measured via Fluorescence Activated Sorter.

[6] = tested on: T47D cells; assay: AnnexinV/PI cell death assay; type: cell-based; conditions: 48 hrs
Procedure: as §2
Since compound 2 is an iron chelator, we have evaluated the effect of pretreating compound 2 with iron. at a 1:1 ratio by using the Annexin V/PI staining as in example 7.

[7] = tested on: NIH:OVCAR-3 cells; assay: crystal violet assay, cellular viability; type: cell-based; conditions: Homo sapiens, NIH:OVCAR-3, 48 hours
[8] = tested on: MDA-MB-231 cells; assay: cellular migration into scratch, JULI FL; type: cell-based, human
Procedure: (§3) In order to test the effect of compound 2 on cellular migration, we have seeded MCF7 or MDA-MB-231 cells in 12 well plates, let them reach confluence and then introduced a scratch in the monolayer with a 10 μl pipette tip.

[9] = tested on: MCF7 cells; assay: cellular migration into scratch, JULI FL; type: cell-based, human
Procedure: as §3

[10] = tested on: murine triple negative breast cancer cells line 4T1; assay: tumor growth in vivo, 4T1 model; design: species or system Balb/c gamma mice; conditions: for Relative tumor size: 4T1, 8 mg/kg i.p. twice per week
Procedure: In order to define the effect of compound 2 on tumor growth and progression in vivo, we tested its effect on the model of syngeneic murine triple negative breast cancer cells line 4T1, Balb/c gamma mice being the […] host. Mice were injected with 1 million of cells s.c. on the right flank. After appearance of tumors (15-60 mm^3) mice were randomized into two separate group, one receiving corn oil (control) and one receiving compound 2 at 8 mg/kg. Tumor progression was then monitored by ultrasound imaging Vevo770 and mice received the treatment twice per week, i.p. in approximately 100 ul of corn oil.

[11] = tested on: MCF7 cells; assay: OCR and ECAR, Seahorse instrument; type: cell-based, human; conditions: 1 hour incubation
Text: Application of compound 2 leads to marked inhibition of cellular respiration as evidenced by two independent methods: the Oxygraph instrument (Rohlenova, K., Sachaphibulkij, K., Stursa, J., Bezawork-Geleta, A., Blecha, J., Endaya, B., Werner, L., Cerny, J., Zobalova, R., Goodwin, J., Spacek, T., Alizadeh, P. E., Yan, B., Nguyen, M. N., Vondrusova, M., Sobol, M., Jezek, P., Hozak, P., Truksa, J., Rohlena, J., Dong, L. F., & Neuzil, J. (2017) Selective Disruption of Respiratory Supercomplexes as a New Strategy to Suppress Her2high Breast Cancer. Antioxid. Redox. Signal., 26, 84-103) (Table 6) and Seahorse instrument (Table 7). For Seahorse analysis, 20.000 or 30.000 cells were seeded in 96 well plates and incubated with compound 2 for 1 hour. Afterwards, oxygen consumption rate (OCR) and extracellular acidification rate (ECAR) were measured in three cycles of 3 minutes preceded by 3 minutes of mixing, using a Seahorse XFe96 analyzer (Agilent). Results express the mean values of the three cycles.

CC(=O)N(O)CCCCCNC(=O)CCC(=O)N(O)CCCCCNC(=O)CCC(=O)N(O)CCCCCN(CCCCCCCCCC[P+](c1ccccc1)(c1ccccc1)c1ccccc1)CCCCCCCCCC[P+](c1ccccc1)(c1ccccc1)c1ccccc1.[Cl-].[Cl-] [Compound 2, Triphenyl(3,14,25-trihydroxy-2,10,13,21,24-pentaoxo-31-(10-(triphenylphosphonio)decyl)-3,9,14,20,25,31-hexaazahentetracontan-41-yl)phosphonium chloride] was tested, and the “Selectivity index (IC50 non-malignant/IC50 malignant)” value ([1]; BJ vs BT474, 48 hours) was 4.33, the pIC50 ([1]; BT474, 48 hours, crystal violet, read-out: IC50 cellular viability) was 5.48 and the pIC50 ([1]; BT474 Parental, read-out: IC50 crystal violet) was 5.48. For the same molecule, the pIC50 [2] was 5.77, the “slope of the confluence line” value ([3]; MDA-MB-231, 0-22 h, 1 μM) was 0.786 (0.010) and the “slope of the confluence line” value ([3]; MDA-MB-231, 0-22 h, 2 μM) was 0.470 (0.006). For the same molecule, the “slope of the confluence line” value ([3]; MDA-MB-231, 0-22 h, 5 μM) was 0.454 (0.014), the “slope of the confluence line” value ([3]; MDA-MB-231, 22-48 h, 1 μM) was 0.934 (0.014) and the “slope of the confluence line” value ([3]; MDA-MB-231, 22-48 h, 2 μM) was 0.114 (0.011). For the same molecule, the “slope of the confluence line” value ([3]; MDA-MB-231, 22-48 h, 5 μM) was −0.057 (0.013), the Final confluence ([3]; 1 μM) was 65.15 (3.3) and the Final confluence ([3]; 2 μM) was 46.58 (2.7). The Final confluence ([3]; 5 μM) was 25.87 (2.4), the “slope of the confluence line” value ([4]; MCF7, 0-22 h, 1 μM) was 0.655 (0.022) and the “slope of the confluence line” value ([4]; MCF7, 0-22 h, 2 μM) was 0.324 (0.016). For the same molecule, the “slope of the confluence line” value ([4]; MCF7, 0-22 h, 5 μM) was 0.317 (0.030), the “slope of the confluence line” value ([4]; MCF7, 22-48 h, 1 μM) was 0.510 (0.014) and the “slope of the confluence line” value ([4]; MCF7, 22-48 h, 2 μM) was 0.104 (0.007). The “slope of the confluence line” value ([4]; MCF7, 22-48 h, 5 μM) was −0.076 (0.010), the Final confluence ([4]; 1 μM) was 53.15 (4.0) and the Final confluence ([4]; 2 μM) was 32.94 (2.5). For the same molecule, the Final confluence ([4]; 5 μM) was 26.54 (1.9), the “mean percentage of dead cells (AnnexinV/PI)” value (“mean percentage of dead cells” below) ([5]; MDA-MB-231, 5 μM) was 39.8% and the “mean percentage of dead cells” value ([5]; MDA-MB-231, 10 μM) was 78.5%. The “mean percentage of dead cells” value ([5]; MDA-MB-231, 20 μM) was 98.0%, the “mean percentage of dead cells” value ([6]; 5 μM) was 38.3 (5.8) % and the “mean percentage of dead cells” value ([6]; 10 μM) was 41.2 (3.1) %. The “mean percentage of dead cells” value ([6]; 20 μM) was 93.6 (1.3) %, the pIC50 [7] was 5.43 and the “mean percentage of non-invaded portion of the scratch” value ([8]; MDA-MB-231, 0 h, 1 μM) was 100 (5.5) %. For the same molecule, the “mean percentage of non-invaded portion of the scratch” value ([8]; MDA-MB-231, 0 h, 2 μM) was 100 (7.4) %, the “mean percentage of non-invaded portion of the scratch” value ([8]; MDA-MB-231, 0 h, 5 μM) was 100 (6.5) % and the “mean percentage of non-invaded portion of the scratch” value ([8]; MDA-MB-231, 24 h, 1 μM) was 40.7 (8.9) %. For the same molecule, the “mean percentage of non-invaded portion of the scratch” value ([8]; MDA-MB-231, 24 h, 2 μM) was 42.7 (8.0) %, the “mean percentage of non-invaded portion of the scratch” value ([8]; MDA-MB-231, 24 h, 5 μM) was 48.4 (8.9) % and the “mean percentage of non-invaded portion of the scratch” value ([8]; MDA-MB-231, 48 h, 1 μM, cells started to die at 48 hrs) was 61.7 (6.7) %. For the same molecule, the “mean percentage of non-invaded portion of the scratch” value ([8]; MDA-MB-231, 48 h, 2 μM, cells started to die at 48 hrs) was 76.2 (13.3) %, the “mean percentage of non-invaded portion of the scratch” value ([8]; MDA-MB-231, 48 h, 5 μM, cells started to die at 48 hrs) was 98.5 (9.1) % and the “mean percentage of non-invaded portion of the scratch” value ([9]; MCF7, 0 h, 1 μM) was 100 (4.1) %. For the same molecule, the “mean percentage of non-invaded portion of the scratch” value ([9]; MCF7, 0 h, 2 μM) was 100 (4.8) %, the “mean percentage of non-invaded portion of the scratch” value ([9]; MCF7, 0 h, 5 μM) was 100 (4.4) % and the “mean percentage of non-invaded portion of the scratch” value ([9]; MCF7, 24 h, 1 μM) was 78.8 (5.2) %. For the same molecule, the “mean percentage of non-invaded portion of the scratch” value ([9]; MCF7, 24 h, 2 μM) was 79.2 (1.1) %, the “mean percentage of non-invaded portion of the scratch” value ([9]; MCF7, 24 h, 5 μM) was 83.8 (0.6) % and the “mean percentage of non-invaded portion of the scratch” value ([9]; MCF7, 48 h, 1 μM) was 61.8 (5.3) %. The “mean percentage of non-invaded portion of the scratch” value ([9]; MCF7, 48 h, 2 μM) was 66.1 (1.1) %, the “mean percentage of non-invaded portion of the scratch” value ([9]; MCF7, 48 h, 5 μM) was 78.8 (0.6) % and the “effect on relative tumor growth, in words” value ([10]; 4T1, 8 mg/kg) was “significantly reduces relative tumor growth”. For the same molecule, the Relative tumor size ([10]; Day 0) was 1.0, the Relative tumor size ([10]; Day 4) was 1.3 and the Relative tumor size ([10]; Day 7) was 1.1. It also gave a Relative tumor size ([10]; Day 11) of 1.4, a Relative tumor size ([10]; Day 14) of 1.6 and a Relative tumor size ([10]; Day 18) of 2.5. For the same molecule, the “Oxygen consumption rate (OCR)” value ([11]; MCF7, 5 μM) was 15.4 pmol*min^−1 10.000 cells^−1, the “extracellular acidification rate (ECAR)” value ([11]; MCF7, 5 μM) was 9.69 mpH*min^−1 10.000 cells^−1 and the “Oxygen consumption rate (OCR)” value ([11]; MCF7, 10 μM) was 9.6 pmol*min^−1 10.000 cells^−1. The “extracellular acidification rate (ECAR)” value ([11]; MCF7, 10 μM) was 8.2 mpH*min^−1 10.000 cells^−1.
